# Tests used:
# [1] = tested on: A. fumigatus CEA10 hyphae; assay: Propidium iodide viability staining of treated hyphae; type: cell-based, Aspergillus fumigatus
# Procedure: For PI staining of 1-treated hyphae, 0.5 × 10^3conidia/mL in 100 µL RPMI + MOPS were inoculated into chambers of an eight-well chamber slide and incubated at 37°C for 14 hours. 100 µL of media containing a 2× concentration of 1 or an equivalent amount of DMSO was added to each chamber, and slides were incubated for an additional 24 hours. Media were removed from chambers, replaced with PBS + 40 µM propidium iodide (Invitrogen, Cat # P3566), then slides were incubated at room temperature for 20 min in the dark. Images were acquired on a Nikon epifluorescence microscope with a Nikon DS-Fi1 camera and Nikon Elements image acquisition and analysis software. Images were processed equally with linear brightness and contrast adjustments in Photoshop, only to increase ease of viewing. Representative images of two independent experiments are shown with two biological replicates each.
# C. neoformans [2] = assay: C. neoformans time kill assay; type: cell-based, Cryptococcus neoformans
# Procedure: Overnight cultures of H99 were enumerated and diluted 1 × 10^5 CFU/mL in YPD with 4 µg/mL 1, 8 µg/mL 1, or DMSO. Cultures were incubated at 37°C with shaking for 30 hours with sampling at t = 0, 2, 4, 6, 8, 24, and 30 hours, then 10-fold serial dilutions of each sample were prepared and spotted on YPD. Viable colonies were enumerated after 48 hours at 30°C. Data are representative of two independent experiments performed in biological triplicate with technical duplicates.
# [3] = tested on: S. cerevisiae heterozygous mutants; assay: Chemical haploinsufficiency screen and spot dilution validation; type: cell-based, Saccharomyces cerevisiae; conditions: YPD 32 µg/mL 1, relative to WT
# Procedure: Chemical genetics screening was performed using the Saccharomyces heterozygous deletion collection (Transomic Technologies, TKY3504). Mutant strains were grown overnight in 200 µL YPD in a 96-well plate then pinned into 25 µL PBS using a 96-floating pin multiblot replicator (V&P Scientific Inc, Cat # 408FP6) and library copier (V&P Scientific Inc, Cat # 381). Cell dilutions were then pinned onto an Omni Tray (Nunc, Cat # 242811) single-well plate containing YPD with DMSO or 32 µg/mL 1 for a total of 384 spots per plate. Each plate contained at least one wild type control. Plates were incubated at 30°C and imaged every 24 hours for 4 days. Hits were called by visual evaluation. To validate hits and score growth phenotypes, serial dilutions of OD = 1.0, 0.1, 0.01, and 0.001 were prepared for each mutant from a 200 µL YPD overnight culture in a 96-well plate. Three microliters of each dilution was spotted on YPD containing DMSO or 32 µg /mL 1 and incubated for 72 hours at 30°C. The growth of each mutant on 1 was scored compared to wild-type controls as no inhibition (++++), modest (+++), or severe (+/++) growth inhibition.
# A. fumigatus CEA10 = assay: ER stress interactions on GMM plates; type: cell-based, Aspergillus fumigatus; conditions: 1 µg/mL 1 on GMM
# Procedure: (§1) For Aspergillus fumigatus, 5 µL of 1 × 10^4 CEA10 conidia was spotted at the center of GMM plates containing DMSO or 1 µg/mL 1 in combination with DTT, brefeldin A, or tunicamycin. Plates were incubated at 37°C for 72 hours. Representative images of two independent experiments with three biological replicates each were obtained. For Ire1 strains, the cells were prepared as described above but were incubated at 30°C.
# A. fumigatus ∆ireA = assay: Susceptibility of ∆ireA mutant on GMM plates; type: cell-based, Aspergillus fumigatus; conditions: 72 hours at 30°C, colony diameter ratio
# Procedure: as §1
# [4] = Protein binding analysis, plasma; type: in vitro ADME; conditions: mouse, mouse plasma diluted 1:10 with PBS
# [5] = Protein binding analysis, brain; type: in vitro ADME
# A. fumigatus = assay: MIC testing in the presence of 10% serum; type: cell-based, Aspergillus fumigatus
# Procedure: (§2) MICs were determined using Clinical and Laboratory Standards Institute guidelines ([48], [49]). All yeasts were cultured overnight in 3 mL YPD at 30°C, then washed twice in sterile phosphate-buffered saline (PBS). Twofold serial dilutions of each drug were prepared in RMPI + MOPS, then 1 × 10^3 cells were added per well. For mold species, wells were inoculated with 1.25 × 10^3 conidia per well. Plates were incubated at 37°C for 24 (Candida spp. and S. cerevisiae), 48 (Aspergillus spp., M. circinelloides, S. apiospermum, and L. prolificans), or 72 (C. neoformans and F. oxysporum) hours. S. cerevisiae BY4743 MICs were tested in YPD due to nutritional requirements of this strain. Each assay was performed in technical duplicate in at least two independent experiments performed on different days.
# C. neoformans [6] = assay: MIC testing in the presence of 10% serum; type: cell-based
# Procedure: as §2
# [7] = read-out: Corrected % Protein binding (converted)
structure (smiles),measurement,setting,value
OC1CC(c2cc(N3CCC(CCc4ccccc4)CC3)ncn2)C1 (centres unmarked) [compound 1],propidium iodide staining of hyphae,[1]; 8 µg/mL for 24 hours after 14 hours germination,did not show increased staining relative to vehicle-treated controls
same,propidium iodide staining of hyphae,[1]; 32 µg/mL for 24 hours after 14 hours germination,stained brightly
same,type of activity against biofilms,[1]; at concentrations 2× the MIC,fungicidal
same,propidium iodide staining of C. neoformans vs vehicle,"C. neoformans [2]; 8 µg/mL, 24 hours post treatment (Fig. S1)",did not observe changes in propidium iodide
same,type of activity (time kill),C. neoformans [2]; 2× (4 µg/mL) or 4× (8 µg/mL) MIC over 30 hours,fungistatic
same,viable CFUs vs vehicle-treated controls,"C. neoformans [2]; 4 or 8 µg/mL, 8, 24 and 30 hours post-treatment",significantly reduced
same,Growth,[3]; mutant YDR361C BCP1,+++
same,Growth,[3]; mutant YDR362C TFC6,+++
same,Growth,[3]; mutant YDR373W FRQ1,+++
same,Growth,[3]; mutant YDR416W SYF1,+++
same,Growth,[3]; mutant YER012W PRE1,+++
same,Growth,[3]; mutant YFR051C RET2,+++
same,Growth,[3]; mutant YGL047W ALG14,++
same,Growth,[3]; mutant YGL116W CDC20,+++
same,Growth,[3]; mutant YGR190C Dubious_HIP1 overlap,+++
same,Growth,[3]; mutant YGR191W HIP1,+++
same,Growth,[3]; mutant YGR216C GPI1,+++
same,Growth,[3]; mutant YHR062C RPP1,+++
same,Growth,[3]; mutant YHR068W DYS1,++
same,Growth,[3]; mutant YHR072W ERG7,+++
same,Growth,[3]; mutant YHR107C CDC12,+++
same,Growth,[3]; mutant YHR122W CIA2,+++
same,Growth,[3]; mutant YHR143W-A RPC10,++
same,Growth,[3]; mutant YIL033C BCY1,+++
same,Growth,[3]; mutant YIL104C SHQ1,+++
same,Growth,[3]; mutant YIL109C SEC24,+++
same,Growth,[3]; mutant YIL144W NDC80,+++
same,Growth,[3]; mutant YIL147C SLN1,+++
same,Growth,[3]; mutant YIL150C MCM10,+++
same,Growth,[3]; mutant YIL171W,++
same,Growth,[3]; mutant YIR012W SQT1,+++
same,Growth,[3]; mutant YKL049C CSE4,+++
same,Growth,[3]; mutant YKL108W SLD2,++
same,Growth,[3]; mutant YKL154W SRP102,++
same,Growth,[3]; mutant YKL180W RPL17A,++
same,Growth,[3]; mutant YKL189W HYM1,++
same,Growth,[3]; mutant YML085C TUB1,+
same,Growth,[3]; mutant YMR185W RTP1,+++
same,Growth,[3]; mutant YMR277W FCP1,+++
same,Growth,[3]; mutant YMR314W PRE5,+++
same,Growth,[3]; mutant YNL287W SEC21,+++
same,Growth,[3]; mutant YPL131W RPL5,+++
same,Growth,[3]; mutant YPL142C (no gene name),+
same,Growth,[3]; mutant YPL143W RPL33A,+
same,Growth,[3]; mutant YPL235W RVB2,+
same,Growth,[3]; mutant YPL237W SUI3,+
same,Growth,[3]; mutant YPR035W GLN1,+++
same,Growth,[3]; mutant YPR136C Dubious_RRP9 overlap,++
same,Growth,[3]; mutant YPR181C SEC23,+
same,Growth,[3]; mutant YPR187W RPO26,+
same,interaction with DTT,"A. fumigatus CEA10; 37°C, 72 hours",synergistic
same,interaction with brefeldin A,"A. fumigatus CEA10; 37°C, 72 hours",modest antagonism
same,interaction with tunicamycin,A. fumigatus CEA10; 10 µg/mL tunicamycin,slight antagonism
same,interaction with tunicamycin,A. fumigatus CEA10; 50 µg/mL tunicamycin,no interaction
same,susceptibility of ∆ireA mutant vs wild type,A. fumigatus ∆ireA,same susceptibility as wild type
same,"fraction unbound at 6 h, 5 µM",[4]; [7],0.0285
same,"fraction unbound at 6 h, 5 µM","[4]; uncorrected (plasma diluted 1:10), read-out: % Protein binding (converted)",0.227
same,"fraction unbound at 6 h, 5 µM",[5]; [7],0.0112
same,fraction unbound,[5]; uncorrected,0.1
same,increase in MIC in the presence of 10% serum,A. fumigatus; A. fumigatus,2 fold
same,MIC,"A. fumigatus; Aspergillus fumigatus, read-out: MIC w/serum",32 µg/mL
same,increase in MIC in the presence of 10% serum,C. neoformans [6],2 fold

# — paper PMC11302339, “A series of pyrimidine-based antifungals with anti-mold activity disrupt ER function in Aspergillus fumigatus” (Microbiology Spectrum, 2024)
